Assay results published in patent US9630958B2, “Triazine compounds” (Sphaera Pharma Pte. Ltd., priority 2012, dated 2017).

Assays:
Recombinant mTOR (FRAP1) = target: T1, Recombinant mTOR (FRAP1) (Homo sapiens, UniProt P42345); experiment: mTOR in vitro kinase assay (TR-FRET, phosphorylation of GFP-4E-BP1); assay type: biochemical; settings: for IC50: 8 μM ATP, 400 nM GFP-4E-BP1; for inhibition at 1 µM: 1 uM compound, read-out: mTOR % Inhib@1 uM
T1 construct: purchased Invitrogen
Summary of the method: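 Recombinant human mTOR with GFP-4E-BP1 substrate at 400 nM and 8 μM ATP, 1 h at room temperature, then quenched with 10 mM EDTA plus 2 nM Tb-anti-p4E-BP1 (pThr46) for 1 h. TR-FRET 520/486 nm ratio fitted against inhibitor concentration by four-parameter sigmoidal regression.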

[1] = target: T2, PI3 Kinase alpha (p110 alpha/p85 alpha) (Homo sapiens, UniProt P42336); experiment: PI3K TR-FRET assay (Transcreener ADP2); assay type: biochemical; settings: for inhibition at 1 µM: 1 uM compound, read-out: PI3K % Inhib@1 uM; for IC50: PI3K alpha, 1 μM ATP, 50 μM PIP2
T2 construct: purchased Invitrogen
Summary of the method: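 p110α/p85α with diC8 PIP2 (50 μM) and 1 μM ATP in 50 mM HEPES pH 7.4, MgCl2, CHAPS, DTT, EGTA; 1 h at room temperature. ADP detected by Transcreener ADP2 TR-FRET (665/615 nm ratio), converted to product via ADP-ATP standard curve; IC50 from four-parameter fit of % inhibition.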

T2 sequence (P42336 whole entry): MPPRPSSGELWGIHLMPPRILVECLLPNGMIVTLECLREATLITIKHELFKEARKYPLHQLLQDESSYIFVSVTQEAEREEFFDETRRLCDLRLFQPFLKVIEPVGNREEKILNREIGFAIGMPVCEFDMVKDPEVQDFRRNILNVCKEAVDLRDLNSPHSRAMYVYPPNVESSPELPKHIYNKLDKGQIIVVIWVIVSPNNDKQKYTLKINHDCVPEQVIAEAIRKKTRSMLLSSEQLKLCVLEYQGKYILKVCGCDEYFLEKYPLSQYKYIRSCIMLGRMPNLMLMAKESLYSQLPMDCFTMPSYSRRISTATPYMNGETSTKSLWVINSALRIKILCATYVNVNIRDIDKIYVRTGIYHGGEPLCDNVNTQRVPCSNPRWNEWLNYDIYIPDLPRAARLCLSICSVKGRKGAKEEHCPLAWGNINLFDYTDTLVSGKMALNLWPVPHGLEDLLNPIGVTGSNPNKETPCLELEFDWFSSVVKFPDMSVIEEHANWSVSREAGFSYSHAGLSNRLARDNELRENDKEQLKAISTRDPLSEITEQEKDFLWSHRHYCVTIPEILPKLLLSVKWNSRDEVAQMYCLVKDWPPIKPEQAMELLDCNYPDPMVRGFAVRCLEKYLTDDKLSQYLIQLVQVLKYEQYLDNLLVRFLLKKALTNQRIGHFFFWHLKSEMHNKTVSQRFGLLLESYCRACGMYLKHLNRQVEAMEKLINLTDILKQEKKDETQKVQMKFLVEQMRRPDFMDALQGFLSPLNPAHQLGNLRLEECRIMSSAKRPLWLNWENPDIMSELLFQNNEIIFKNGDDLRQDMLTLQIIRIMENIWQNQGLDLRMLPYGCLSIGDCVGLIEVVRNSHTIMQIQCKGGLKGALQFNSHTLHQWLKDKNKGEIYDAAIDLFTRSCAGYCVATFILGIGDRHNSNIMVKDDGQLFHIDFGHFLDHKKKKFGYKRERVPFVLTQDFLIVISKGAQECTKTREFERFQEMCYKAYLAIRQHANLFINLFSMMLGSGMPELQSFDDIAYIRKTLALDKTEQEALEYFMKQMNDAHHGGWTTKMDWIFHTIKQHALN
T2 sequence (P27986 whole entry partner): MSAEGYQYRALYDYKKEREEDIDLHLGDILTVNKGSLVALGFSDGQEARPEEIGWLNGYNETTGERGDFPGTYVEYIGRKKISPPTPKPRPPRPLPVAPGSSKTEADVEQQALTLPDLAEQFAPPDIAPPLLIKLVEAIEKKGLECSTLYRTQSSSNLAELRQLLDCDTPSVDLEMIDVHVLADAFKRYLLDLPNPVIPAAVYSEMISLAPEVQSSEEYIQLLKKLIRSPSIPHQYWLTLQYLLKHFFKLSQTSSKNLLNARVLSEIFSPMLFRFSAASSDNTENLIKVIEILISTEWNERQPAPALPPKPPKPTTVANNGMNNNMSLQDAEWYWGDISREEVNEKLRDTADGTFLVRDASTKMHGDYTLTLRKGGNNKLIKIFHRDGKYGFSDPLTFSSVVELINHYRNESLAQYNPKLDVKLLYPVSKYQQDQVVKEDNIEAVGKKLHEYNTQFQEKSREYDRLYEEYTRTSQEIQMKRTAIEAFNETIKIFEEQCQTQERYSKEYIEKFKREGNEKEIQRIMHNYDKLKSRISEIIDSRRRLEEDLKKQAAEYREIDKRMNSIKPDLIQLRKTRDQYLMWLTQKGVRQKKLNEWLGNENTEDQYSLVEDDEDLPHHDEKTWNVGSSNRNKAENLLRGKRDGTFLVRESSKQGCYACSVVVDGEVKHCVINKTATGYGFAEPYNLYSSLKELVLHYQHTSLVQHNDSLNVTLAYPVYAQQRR
T1 sequence (P42345 1360-2549 limits assumed): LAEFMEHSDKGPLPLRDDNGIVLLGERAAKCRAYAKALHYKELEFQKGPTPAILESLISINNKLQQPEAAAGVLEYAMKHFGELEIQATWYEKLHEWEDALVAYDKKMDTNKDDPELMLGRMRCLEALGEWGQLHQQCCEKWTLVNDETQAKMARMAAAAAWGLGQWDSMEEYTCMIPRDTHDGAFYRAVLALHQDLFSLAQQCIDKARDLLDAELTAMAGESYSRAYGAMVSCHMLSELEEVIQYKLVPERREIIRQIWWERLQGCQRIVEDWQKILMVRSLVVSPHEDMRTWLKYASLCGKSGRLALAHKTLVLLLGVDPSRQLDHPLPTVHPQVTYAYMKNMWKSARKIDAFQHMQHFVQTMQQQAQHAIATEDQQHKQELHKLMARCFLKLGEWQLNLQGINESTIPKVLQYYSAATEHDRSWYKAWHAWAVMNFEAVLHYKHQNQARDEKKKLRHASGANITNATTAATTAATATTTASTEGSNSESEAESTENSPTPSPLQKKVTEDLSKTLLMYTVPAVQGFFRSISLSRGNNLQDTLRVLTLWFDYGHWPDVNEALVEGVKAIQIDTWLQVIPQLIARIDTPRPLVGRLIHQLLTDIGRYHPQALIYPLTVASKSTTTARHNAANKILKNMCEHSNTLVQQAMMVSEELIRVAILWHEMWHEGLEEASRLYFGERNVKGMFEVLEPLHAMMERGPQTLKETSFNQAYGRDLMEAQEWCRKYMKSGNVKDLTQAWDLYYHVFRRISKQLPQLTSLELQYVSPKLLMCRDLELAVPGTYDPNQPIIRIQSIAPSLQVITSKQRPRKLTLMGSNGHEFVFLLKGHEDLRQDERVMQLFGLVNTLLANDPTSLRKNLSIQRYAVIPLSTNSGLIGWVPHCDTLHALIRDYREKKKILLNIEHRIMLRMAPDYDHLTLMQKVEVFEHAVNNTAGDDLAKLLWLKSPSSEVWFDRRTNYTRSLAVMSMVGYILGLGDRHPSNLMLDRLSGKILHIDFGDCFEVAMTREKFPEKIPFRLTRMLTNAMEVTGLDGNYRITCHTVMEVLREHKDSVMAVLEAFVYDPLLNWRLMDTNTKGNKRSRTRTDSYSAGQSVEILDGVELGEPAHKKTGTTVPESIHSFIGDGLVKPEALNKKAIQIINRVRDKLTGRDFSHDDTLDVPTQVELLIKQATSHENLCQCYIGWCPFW

## C[C@@H]1CN(c2nc(Oc3ccc(C(=O)N(C)C)cc3F)nc(-c3ccc(N)nc3)n2)[C@@H](C)CO1 [Compound 10098, 4-((4-(6-Aminopyridin-3-yl)-6-((2R,5S)-2,5-dimethylmorpholino)-1,3,5-triazin-2-yl)oxy)-3-fluoro-N,N-dimethylbenzamide]
Recombinant mTOR (FRAP1)
  IC50: < 1 µM
[1]
  inhibition at 1 µM: > 50%
  IC50: < 1 µM

## C[C@@H]1COCCN1c1nc(Oc2ccc(C(=O)N(C)C)cc2F)nc(-c2ccc(N)nc2)n1 [Compound 10099, (R)-4-((4-(6-Aminopyridin-3-yl)-6-(3-methylmorpholino)-1,3,5-triazin-2-yl)oxy)-3-fluoro-N,N-dimethylbenzamide]
Recombinant mTOR (FRAP1)
  IC50: < 1 µM
[1]
  inhibition at 1 µM: > 50%
  IC50: < 1 µM

## C[C@H]1COCCN1c1nc(Oc2ccc(C(=O)N(C)C)cc2F)nc(-c2ccc3[nH]ccc3c2)n1 [Compound 10100, (S)-4-((4-(1H-indol-5-yl)-6-(3-methylmorpholino)1,3,5-triazin-2-yl)oxy)3-fluoro-N,N-dimethylbenzamide]
Recombinant mTOR (FRAP1)
  inhibition at 1 µM: > 50%
  IC50: < 1 µM
[1]
  IC50: < 1 µM

## C[C@H]1COCCN1c1nc(Oc2ccc(C(=O)N(C)C)cc2F)nc(-c2cnc3[nH]ccc3c2)n1 [Compound 10103, (S)-3-Fluoro-N,N-dimethyl-4-((4-(3-methylmorpholino)-6-(1H-pyrrolo-[2,3-b]pyridin-5-yl)-1,3,5-triazin-2-yl)oxy)benzamide]
Recombinant mTOR (FRAP1)
  IC50: < 1 µM
[1]
  IC50: < 1 µM

## C[C@H]1CN(c2nc(Oc3ccc(C(=O)N(C)C)cc3F)nc(-c3cnc4[nH]ccc4c3)n2)[C@@H](C)CO1 [Compound 10104, 4-((4-((2S,5S)-2,5-dimethylmorpholino)-6-(1H-pyrrolo[2,3-b]pyridine-5-yl)-1,3,5-triazin-2-yl)oxy)-3-fluoro-N,N-dimethylbenzamide]
Recombinant mTOR (FRAP1)
  IC50: < 1 µM
[1]
  IC50: < 1 µM

## C[C@@H]1CN(c2nc(Oc3ccc(C(=O)N(C)C)cc3F)nc(-c3cnc4[nH]ccc4c3)n2)[C@@H](C)CO1 [Compound 10105, 4-((4-((2R,5S)-2,5-dimethylmorpholino)-6-(1H-pyrrolo[2,3-b]pyridine-5-yl)-1,3,5-triazin-2-yl)oxy)-3-fluoro-N,N-dimethylbenzamide]
Recombinant mTOR (FRAP1)
  IC50: < 1 µM
[1]
  IC50: > 1 µM

## CC(C(=O)N(C)C)c1ccc(Oc2nc(-c3cnc(N)s3)nc(N3CCOCC3)n2)cc1 (stereo not drawn) [Compound 10115, 2-(4-(4-(2-aminothiazol-5-yl)-6-morpholino-1,3,5-triazin-2-yloxy)phenyl)-N,N-dimethylpropanamide]
Recombinant mTOR (FRAP1)
  inhibition at 1 µM: > 50%
[1]
  IC50: < 1 µM

## CN(C)C(=O)c1ccc(Oc2nc(-c3cnc(N)s3)nc(N3CCSCC3)n2)cc1 [Compound 10118, 4-(4-(2-aminothiazol-5-yl)-6-thiomorpholino-1,3,5-triazin-2-yloxy)-N,N-dimethylbenzamide]
Recombinant mTOR (FRAP1)
  inhibition at 1 µM: > 50%
  IC50: > 3 µM
[1]
  IC50: > 1 µM

## CN(C)C(=O)c1ccc(Oc2nc(-c3cnc(N)s3)nc(N3CCCCC3)n2)cc1 [Compound 10119, 4-(4-(2-aminothiazol-5-yl)-6-(piperidin-1-yl)-1,3,5-triazin-2-yloxy)-N,N-dimethylbenzamide]
Recombinant mTOR (FRAP1)
  inhibition at 1 µM: < 50%
[1]
  IC50: > 10 µM

## C[C@@H]1CN(c2nc(Oc3ccc(C(=O)N(C)C)cc3)nc(-c3cnc(N)s3)n2)C[C@H](C)O1 [Compound 10122, 4-(4-(2-aminothiazol-5-yl)-6-((2S,6R)-2,6-dimethylmorpholino)-1,3,5-triazin-2-yloxy)-N,N-dimethylbenzamide]
Recombinant mTOR (FRAP1)
  inhibition at 1 µM: > 50%
  IC50: > 1 µM
[1]
  inhibition at 1 µM: < 50%

## CN(C)C(=O)c1ccc(Oc2nc(-c3cnc(N)s3)nc(N3CCS(=O)(=O)CC3)n2)cc1 [Compound 10123]
Recombinant mTOR (FRAP1)
  inhibition at 1 µM: < 50%
[1]
  inhibition at 1 µM: < 50%

## CN(C)C(=O)c1ccc(Oc2nc(-c3cnc(N)[nH]3)nc(N3CCOCC3)n2)cc1 [Compound 10124, 4-(4-(2-amino-1H-imidazol-5-yl)-6-morpholino-1,3,5-triazin-2-yloxy)-N,N-dimethylbenzamide]
Recombinant mTOR (FRAP1)
  inhibition at 1 µM: < 50%
[1]
  inhibition at 1 µM: < 50%

## C[C@H]1COCCN1c1nc(Oc2ccc(C(=O)N(C)C)cc2)nc(C2=CC=C(N)N(O)C2)n1 [Compound 10125]
Recombinant mTOR (FRAP1)
  inhibition at 1 µM: < 50%
[1]
  inhibition at 1 µM: < 50%

## C[C@H]1COCCN1c1nc(Oc2ccc(C(=O)N(C)C)cc2)nc(-c2cnc(N)nc2)n1 [Compound 10126, 4-(4-(2-aminopyrimidin-5-yl)-6-((S)-3-methylmorpholino)-1,3,5-triazin-2-yloxy)-N,N-dimethylbenzamide]
Recombinant mTOR (FRAP1)
  inhibition at 1 µM: > 50%
  IC50: < 1 µM
[1]
  IC50: < 1 µM

## C[C@H]1CN(c2nc(Oc3ccc(C(=O)N(C)C)cc3)nc(-c3cnc(N)s3)n2)CCO1 [Compound 10127, 4-(4-(2-aminothiazol-5-yl)-6-((S)-2-methylmorpholino)-1,3,5-triazin-2-yloxy)-N,N-dimethylbenzamide]
Recombinant mTOR (FRAP1)
  inhibition at 1 µM: > 50%
  IC50: < 1 µM
[1]
  inhibition at 1 µM: > 50%
  IC50: < 1 µM

## CN(C)C(=O)c1ccc(Oc2nc(-c3cnc(N)s3)nc(N3CCOCC3(C)C)n2)cc1 [Compound 10128, 4-(4-(2-aminothiazol-5-yl)-6-(3,3-dimethylmorpholino)-1,3,5-triazin-2-yloxy)-N,N-dimethylbenzamide]
Recombinant mTOR (FRAP1)
  inhibition at 1 µM: > 50%
  IC50: < 1 µM
[1]
  inhibition at 1 µM: > 50%
  IC50: < 1 µM

## CN(C)C(=O)c1ccc(Oc2nc(-c3cnc(N)s3)nc(N3CCO[C@@H]4CCCC[C@H]43)n2)cc1 [Compound 10131, 4-(4-(2-aminothiazol-5-yl)-6-((4aR,8aR)-octahydrobenzo[b][1,4]oxazin-4-yl)-1,3,5-triazin-2-yloxy)-N,N-dimethylbenzamide]
Recombinant mTOR (FRAP1)
  inhibition at 1 µM: < 50%
[1]
  inhibition at 1 µM: < 50%

## CN(C)C(=O)c1ccc(Oc2nc(-c3cnc(N)s3)nc(N3CCO[C@@H]4CCC[C@H]43)n2)cc1 [Compound 10132, 4-(4-(2-aminothiazol-5-yl)-6-((4aR,7aR)-hexahydrocyclopenta[b][1,4]oxazin-4(4aH)-yl)-1,3,5-triazin-2-yloxy)-N,N-dimethylbenzamide]
Recombinant mTOR (FRAP1)
  inhibition at 1 µM: > 50%
  IC50: < 1 µM
[1]
  inhibition at 1 µM: < 50%
  IC50: < 1 µM

## CNC(=O)Nc1ncc(-c2nc(NC)nc(N3CCOC[C@@H]3C)n2)s1 [Compound 10135, 1-methyl-3-(5-(4-(methylamino)-6-((S)-3-methylmorpholino)-1,3,5-triazin-2-yl)thiazol-2-yl)urea]
Recombinant mTOR (FRAP1)
  inhibition at 1 µM: < 50%
[1]
  inhibition at 1 µM: < 50%

## CN(C)C(=O)c1ccc(Oc2nc(-c3ccc4[nH]ncc4c3)nc(N3C4CCC3COC4)n2)c(F)c1 [Compound 10136, 4-(4-(3-oxa-8-aza-bicyclo[3.2.1]octan-8-yl)-6-(1H-indazol-5-yl)-1,3,5-triazin-2-yloxy)-3-fluoro-N,N-dimethylbenzamide]
Recombinant mTOR (FRAP1)
  inhibition at 1 µM: > 50%
  IC50: < 1 µM
[1]
  inhibition at 1 µM: < 50%
  IC50: > 10 µM

## C[C@H]1COCCN1c1nc(OC2CCN(C(=O)N(C)C)CC2)nc(-c2cnc(N)s2)n1 [Compound 10137, 4-(4-(2-aminothiazol-5-yl)-6-((S)-3-methylmorpholino)-1,3,5-triazin-2-yloxy)-N,N-dimethylpiperidine-1-carboxamide]
Recombinant mTOR (FRAP1)
  inhibition at 1 µM: > 50%
  IC50: < 1 µM
[1]
  IC50: < 1 µM

## C[C@H]1COCCN1c1nc(OC2CCN(C(=O)N(C)C)C2)nc(-c2cnc(N)s2)n1 (stereo partly drawn) [Compound 10138, 3-(4-(2-aminothiazol-5-yl)-6-((S)-3-methylmorpholino)-1,3,5-triazin-2-yloxy)-N,N-dimethylpyrrolidine-1-carboxamide]
Recombinant mTOR (FRAP1)
  inhibition at 1 µM: < 50%
  IC50: > 1 µM
[1]
  inhibition at 1 µM: > 50%
  IC50: < 1 µM

## C[C@H]1COCCN1c1nc(O[C@H]2CC[C@H](C(=O)N(C)C)CC2)nc(-c2cnc(N)s2)n1 [Compound 10139, (1S,4r)-4-(4-(2-aminothiazol-5-yl)-6-((S)-3-methylmorpholino)-1,3,5-triazin-2-yloxy)-N,N-dimethylcyclohexanecarboxamide]
Recombinant mTOR (FRAP1)
  inhibition at 1 µM: > 50%
  IC50: < 1 µM
[1]
  IC50: < 1 µM

## CN(C)C(=O)c1ccc(Oc2nc(-c3ccc4[nH]ncc4c3)nc(N3CC4CCC(C3)O4)n2)c(F)c1 [Compound 10140, 4-(4-(8-oxa-3-aza-bicyclo[3.2.1]octan-3-yl)-6-(1H-indazol-5-yl)-1,3,5-triazin-2-yloxy)-3-fluoro-N,N-dimethylbenzamide]
Recombinant mTOR (FRAP1)
  inhibition at 1 µM: > 50%
  IC50: < 1 µM
[1]
  IC50: > 10 µM

## C[C@H]1COCCN1c1nc(OC2CCC(C(=O)N(C)C)CC2)nc(-c2ccc3[nH]ccc3c2)n1 (stereo partly drawn) [Compound 10141, (1R,4s)-4-(4-(1H-indol-5-yl)-6-((S)-3-methylmorpholino)-1,3,5-triazin-2-yloxy)-N,N-dimethylcyclohexanecarboxamide]
Recombinant mTOR (FRAP1)
  IC50: < 1 µM
[1]
  inhibition at 1 µM: < 50%
  IC50: > 10 µM

## C[C@@H]1OCCN(c2nc(Oc3ccc(C(=O)N(C)C)cc3)nc(-c3cnc(N)s3)n2)[C@H]1C [Compound 10142, 4-(4-(2-aminothiazol-5-yl)-6-((2S,3S)-2,3-dimethylmorpholino)-1,3,5-triazin-2-yloxy)-N,N-dimethylbenzamide]
Recombinant mTOR (FRAP1)
  IC50: < 1 µM
[1]
  IC50: > 10 µM

## C[C@H]1COCCN1c1nc(Oc2ccc(C(=O)N(C)C)cc2)nc(-c2cnc(N(C)C)s2)n1 [Compound 10143, 4-(4-(2-(dimethylamino)thiazol-5-yl)-6-((S)-3-methylmorpholino)-1,3,5-triazin-2-yloxy)-N,N-dimethylbenzamide]
Recombinant mTOR (FRAP1)
  IC50: > 1 µM
[1]
  inhibition at 1 µM: < 50%
  IC50: > 1 µM
